Experimental data published in PMC10706087, “The Subtype Selectivity in Search of Potent Hypotensive Agents among 5,5-Dimethylhydantoin Derived α1-Adrenoceptors Antagonists” (International Journal of Molecular Sciences, 2023).

Columns and labels:
[1] = target: α1-adrenoceptors (α1-ARs), rat cerebral cortex; experiment: Radioligand binding assay with [3H]-prazosin, affinity for α1-ARs; conditions: three independent experiments in duplicates, read-out: α1-adrenoceptor affinity Ki
Method: In the first step, all synthesized compounds (1–15) were tested in vitro for their affinity for α1-ARs on rat cerebral cortex by the radioligand binding assay using [^3H]-prazosin as a specific radioligand.
The affinity for α1-ARs was determined by radioligand binding assay on rat cerebral cortex using [3H]-prazosin as a specific radioligand. The brains were homogenized in 20 volumes of an ice-cold 50 mM Tris-HCl buffer (pH 7.6) and were centrifuged (MPW Med. Instruments, Warsaw, Poland) at 20,000× g for 20 min (0–4 °C). The cell pellet was resuspended in the Tris-HCl buffer and centrifuged again. Radioligand-binding assay was performed in plates (MultiScreen/Millipore, Burlington, MA, USA). The final incubation mixture (final volume 300 μL) consisted of 240 μL of the membrane suspension, 30 μL of [3H]-Prazosin (0.2 nM) solution, and 30 μL of the buffer containing seven to eight concentrations (10^−11 to 10^−4 M) of the tested compounds. For measuring the unspecific binding, phentolamine, 10 μM (in the case of [3H]-Prazosin) was applied. The incubation was terminated by rapid filtration over glass fiber filters (Whatman GF/C, Sigma-Aldrich) using a vacuum manifold (Millipore). The filters were then washed twice with the assay buffer and placed in scintillation vials with a liquid-scintillation cocktail. Radioactivity was measured in a WALLAC 1409 DSA liquid-scintillation counter (BioSurplus, San Diego, CA, USA).
(§1) All statistics were performed using GraphPad Prism, Version 6.0 (GraphPad Software, San Diego, CA, USA). In the radioligand binding study, data were analyzed by a one-site curve-fitting equation, and inhibition constants (Ki) values were calculated via the Cheng-Prusoff equation [63]. In functional studies, data were analyzed using a sigmoidal dose-response (variable slope) equation. Arterial blood pressure data were analyzed using a two-way ANOVA with Sidak’s post-hoc test for multiple comparisons. A p < 0.05 was considered statistically significant.

[2] = target: T1, human adrenergic receptor α1A (Homo sapiens, UniProt P35348); experiment: Intrinsic activity, aequorin luminescence functional assay at α1A-AR; format: cell-based; conditions: for α1A-AR Profile: agonist/antagonist profile; for IC50: cells expressing aequorin and human α1A, against phenylephrine, means of three independent experiments in duplicates; for Selectivity Ratio α1B/α1A: selectivity for α1A-AR (IC50(α1B-AR)/IC50(α1A-AR))
T1 sequence (P35348 1-466): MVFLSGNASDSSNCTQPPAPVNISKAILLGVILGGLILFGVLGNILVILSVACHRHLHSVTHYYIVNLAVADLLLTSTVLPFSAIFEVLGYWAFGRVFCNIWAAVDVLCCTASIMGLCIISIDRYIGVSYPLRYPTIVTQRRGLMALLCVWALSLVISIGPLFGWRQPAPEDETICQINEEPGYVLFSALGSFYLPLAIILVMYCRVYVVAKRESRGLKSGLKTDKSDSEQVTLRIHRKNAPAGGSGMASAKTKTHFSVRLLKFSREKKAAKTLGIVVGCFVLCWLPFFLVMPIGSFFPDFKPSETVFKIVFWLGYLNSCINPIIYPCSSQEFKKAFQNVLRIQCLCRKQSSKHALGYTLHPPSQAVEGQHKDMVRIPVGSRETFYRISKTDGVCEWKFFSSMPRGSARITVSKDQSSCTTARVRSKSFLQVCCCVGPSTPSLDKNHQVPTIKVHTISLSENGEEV
Method: (§2) The subtype selectivity for α1A and α1B was calculated as IC50(α1B-AR)/IC50(α1A-AR) and IC50(α1A-AR)/IC50(α1B-AR) ratio, respectively.
(§3) Intrinsic activity at the α1-AR subtypes studies were performed using the cells expressing mitochondrially-targeted aequorin and one of the human adrenergic receptor α1A or α1B (PerkinElmer, Boston, MA, USA), according to the manufacturer’s instructions. For measurement, frozen cells were thawed and re-suspended in 10 mL of assay buffer containing 5 μM “Coelenterazine h”. This cell suspension was put in a 10 mL Falcon tube, fixed onto a rotating heel, and incubated overnight at rt in the dark (8 rpm; 45° angle). Cells were diluted with Assay Buffer to 5000 cells/20 μL. […] The light emitted was recorded for 20 s. Cells with antagonists were incubated for 15 min at room temperature. […] Luminescence was measured using the multidetection microplate reader (POLARstar Omega, BMG LABTECH, Ortenberg, Germany).
as §1

[3] = target: T2, human adrenergic receptor α1B (Homo sapiens, UniProt P35368); experiment: Intrinsic activity, aequorin luminescence functional assay at α1B-AR; format: cell-based; conditions: for α1B-AR Profile: agonist/antagonist profile; for IC50: cells expressing aequorin and human α1B, against phenylephrine, means of three independent experiments in duplicates; for Selectivity Ratio α1A/α1B: selectivity for α1B-AR (IC50(α1A-AR)/IC50(α1B-AR))
T2 sequence (P35368 1-520): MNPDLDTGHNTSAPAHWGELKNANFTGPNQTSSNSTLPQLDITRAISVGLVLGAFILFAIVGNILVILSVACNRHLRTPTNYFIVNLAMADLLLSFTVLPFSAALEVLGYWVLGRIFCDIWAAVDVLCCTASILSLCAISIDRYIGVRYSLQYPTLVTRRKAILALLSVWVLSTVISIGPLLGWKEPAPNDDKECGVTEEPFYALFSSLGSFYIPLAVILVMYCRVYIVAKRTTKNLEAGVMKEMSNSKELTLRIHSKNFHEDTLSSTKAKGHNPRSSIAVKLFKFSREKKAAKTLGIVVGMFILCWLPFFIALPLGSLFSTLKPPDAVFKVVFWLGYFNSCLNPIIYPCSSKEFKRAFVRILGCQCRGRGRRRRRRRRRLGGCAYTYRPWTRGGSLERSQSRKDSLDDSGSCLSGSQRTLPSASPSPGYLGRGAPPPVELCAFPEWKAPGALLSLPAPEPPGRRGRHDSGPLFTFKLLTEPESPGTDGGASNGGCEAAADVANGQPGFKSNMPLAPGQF
Method: as §2, §3, §1

[4] = test system: arterial blood pressure of normotensive Wistar rats; experiment: Influence on blood pressure in normotensive anesthetized rats after i.v. administration; format: in vivo, rat; conditions: for Diastolic blood pressure / Systolic blood pressure: 2.0 mg/kg i.v., mean, n = 6
Method: In the next step, the hypotensive activity of novel compounds 1–3, 5–9, and 11–14 was determined after i.v. administration to normotensive anesthetized rats. All results are shown in Supplementary Table S1.
The normotensive rats were anesthetized with thiopental (75 mg/kg) by intraperitoneal injection (i.p.). The left carotid artery was cannulated with a polyethylene tub filled with heparin in saline to facilitate pressure measurements using a PowerLab Apparatus (ADInstruments, Sydney, Australia). Blood pressure was measured immediately before administration of the tested compounds or vehicle—time 0 min (initial blood pressure) and 60 min thereafter. Initial blood pressure before administration of the tested chemicals in all experimental groups was similar. The tested compounds were dissolved in a specific vehicle: ethyl alcohol 5% − kolliphor 5% − water 90%. All tested chemicals were administrated intravenously (i.v.) at a constant volume of 1 mL/kg after 20 min of stabilization period. The compounds were tested at a starting dose of 2 mg/kg. If the hypotensive activity was found, the dose was reduced by half. The dosing was continued until the hypotensive effects disappeared. Urapidil was used as a reference compound.
as §1

[5] = 0 min (initial, before administration)

| SMILES | Ki [1] | α1A-AR Profile [2] | IC50 [2] | Selectivity Ratio α1B/α1A [2] | α1B-AR Profile [3] | IC50 [3] | Selectivity Ratio α1A/α1B [3] | Diastolic blood pressure [4, 5] | Systolic blood pressure [4, 5] | Diastolic blood pressure ([4]; 5 min) | Systolic blood pressure ([4]; 5 min) | Diastolic blood pressure ([4]; 10 min) | Systolic blood pressure ([4]; 10 min) | Diastolic blood pressure ([4]; 20 min) | Systolic blood pressure ([4]; 20 min) | Diastolic blood pressure ([4]; 30 min) | Systolic blood pressure ([4]; 30 min) | Diastolic blood pressure ([4]; 40 min) | Systolic blood pressure ([4]; 40 min) | Diastolic blood pressure ([4]; 50 min) | also measured |
| --- | --- | --- | --- | --- | --- | --- | --- | --- | --- | --- | --- | --- | --- | --- | --- | --- | --- | --- | --- | --- | --- |
| CC1(C)C(=O)N(Cc2ccc(Cl)cc2Cl)C(=O)N1CCCN1CCN(c2cccc(Cl)c2Cl)CC1.Cl [Compound 2, 3-(2,4-dichlorobenzyl)-1-(3-(4-(2,3-dichlorophenyl)piperazin-1-yl)propyl)-5,5-dimethylimidazolidine-2,4-dione hydrochloride] | 535 nM | Antagonist | 1730 nM | 0.66 | Antagonist | 1150 nM | 1.51 | 100.7 | 129.3 | 98.5 | 126.7 | 96.8 | 124.2 | 92.8 | 121.7 | 90.3 | 121.2 | 89.3 | 120.2 | 88.0 | Systolic blood pressure ([4]; 50 min): 120.3; Diastolic blood pressure ([4]; 60 min): 88.0; Systolic blood pressure ([4]; 60 min): 119.3; melting point: 185 to 187 °C |
| COc1ccccc1N1CCN(CC(O)CN2C(=O)N(Cc3ccc(Cl)cc3Cl)C(=O)C2(C)C)CC1.Cl (centres unmarked) [Compound 13, 3-(2,4-dichlorobenzyl)-1-(2-hydroxy-3-(4-(2-methoxyphenyl)piperazin-1-yl)propyl)-5,5-dimethylimidazolidine-2,4-dione hydrochloride] | 29 nM | Antagonist | 139 nM | 2.39 | Antagonist | 331 nM | 0.42 | 98.0 | 130.7 | 61.2 | 102.8 | 70.8 | 107.7 | 77.3 | 109.3 | 82.2 | 112.7 | 82.8 | 113.3 | 82.2 | selectivity for α1A-AR over α1B-AR ([2]; from IC50 ratio): ~ 2 fold; Systolic blood pressure ([4]; 50 min): 117.2; Diastolic blood pressure ([4]; 60 min): 83.7; Systolic blood pressure ([4]; 60 min): 118.0; effect on systolic and diastolic blood pressure (in words) ([4]; i.v., normotensive anesthetized rats): statistically significant reduction; melting point: 144 to 146 °C |
| COc1cccc(N2CCN(CC(O)CN3C(=O)N(Cc4ccc(Cl)cc4Cl)C(=O)C3(C)C)CC2)c1.Cl (centres unmarked) [Compound 14, 3-(2,4-dichlorobenzyl)-1-(2-hydroxy-3-(4-(3-methoxyphenyl)piperazin-1-yl)propyl)-5,5-dimethylimidazolidine-2,4-dione hydrochloride] | 289 nM | Antagonist | 1220 nM | 1.12 | Antagonist | 1370 nM | 0.89 | 100.8 | 132.5 | 100.3 | 132.3 | 100.7 | 132.0 | 96.0 | 129.3 | 96.0 | 127.7 | 97.3 | 125.8 | 94.3 | Systolic blood pressure ([4]; 50 min): 124.5; Diastolic blood pressure ([4]; 60 min): 92.0; Systolic blood pressure ([4]; 60 min): 124.3; melting point: 177 to 179 °C |
| CC1(C)C(=O)N(Cc2ccc(Cl)cc2Cl)C(=O)N1CC(O)CN1CCN(c2ccccc2)CC1.Cl (centres unmarked) [Compound 6, 3-(2,4-dichlorobenzyl)-1-(2-hydroxy-3-(4-phenylpiperazin-1-yl)propyl)-5,5-dimethylimidazolidine-2,4-dione hydrochloride] | 53 nM | Antagonist | 5910 nM | 0.15 | Antagonist | 905 nM | 6.53 | 98.2 | 134.2 | 87.2 | 124.2 | 90.3 | 125.2 | 89.7 | 126.3 | 89.0 | 125.0 | 89.0 | 126.7 | 89.2 | Systolic blood pressure ([4]; 50 min): 125.5; Diastolic blood pressure ([4]; 60 min): 88.7; Systolic blood pressure ([4]; 60 min): 125.8; melting point: 196 to 198 °C |
